Assay results published in US20180296523A1, “USE OF POLYMETHOXYLATED FLAVONES TO AMELIORATE CIRCADIAN RHYTHM DISORDERS” (THE BOARD OF REGENTS OF THE UNIVERSITY OF TEXAS SY, priority 2017, published 2018).
pEC50: −log10 of the molar value. Entries after “also recorded” stand apart in the source; their conditions may differ. Each block holds one molecule with its values, some of them ahead of it.

Assays:
RORγ-LBD = target: T1, RORγ-LBD (Homo sapiens, UniProt P51449); test: Radioligand receptor binding assay with 25-[3H]-OHC, RORγ-LBD; conditions: in the presence of 4.5 nM 25-[3H]-OHC
T1 sequence (P51449 269-508 limits assumed): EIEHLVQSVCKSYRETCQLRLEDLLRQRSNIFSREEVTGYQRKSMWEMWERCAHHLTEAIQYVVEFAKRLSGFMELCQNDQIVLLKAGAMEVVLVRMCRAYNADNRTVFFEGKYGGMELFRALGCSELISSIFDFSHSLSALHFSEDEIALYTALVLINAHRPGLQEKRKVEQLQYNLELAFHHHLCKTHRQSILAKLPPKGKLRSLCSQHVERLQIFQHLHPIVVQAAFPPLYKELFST
Experimental: (§1) Ligand binding was determined by filter binding assays to calculate the Kd value. […] Ki was determined using the Cheng-Prusoff equation.

RORα-LBD = target: T2, RORα-LBD (Homo sapiens, UniProt P35398); test: Radioligand receptor binding assay with 25-[3H]-OHC, RORα-LBD; conditions: in the presence of 4.5 nM 25-[3H]-OHC
T2 sequence (P35398 272-510 limits assumed): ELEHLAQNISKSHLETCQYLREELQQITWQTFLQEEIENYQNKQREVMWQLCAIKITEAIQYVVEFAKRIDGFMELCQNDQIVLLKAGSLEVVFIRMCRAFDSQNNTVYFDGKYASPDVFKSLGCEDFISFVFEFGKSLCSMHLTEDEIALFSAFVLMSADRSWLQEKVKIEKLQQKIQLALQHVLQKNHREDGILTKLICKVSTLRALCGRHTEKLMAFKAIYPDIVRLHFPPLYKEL
Experimental: as §1

[1] = test system: PER2::LucSV reporter fibroblast cells; test: Dose response validation of reporter rhythm in PER2::LucSV cells; type: cell-based, mouse
Experimental: The chemical screen for circadian clock modulators was conducted at the Chemical Genomics Core facility at the UTHSC-H. The in-house chemical library screened consists of compounds from NIH Clinical Collection, NCI collection and Microsource Spectrum Collection. The screening was conducted largely based on the protocol previously described (Chen et al., 2012). […] Cells were then incubated with 5 μM forskolin for 1-2 h followed by the addition of chemical compounds to the plates with robotic arms (Beckman), and then subjected to continuous monitoring over several days in a temperature-controlled EnVision microplate reader (Perkin Elmer). Data analysis was carried out by using the MultiCycle software (Actimetrics) for measurement of period, phase, and amplitude. […] Tissue explant experiments were conducted as described previously (Chen et al., 2012).

[2] = test system: HFD-fed WT and Clock^Δ19/Δ19 C57BL/6J mice; test: Diet-induced obese (DIO) mouse model, HFD-fed WT and Clock^Δ19/Δ19 mice; type: in vivo; conditions: for body weight gain: 10-week treatment
Experimental: For diet-induced obesity, male mice at 6 weeks of age were fed with HFD (D12492, Research Diets) until the end of the experimental protocol. The mice were treated with either vehicle (DMSO) or NOB (200 mg/kg body weight) via oral gavage every other day, in the time window of ZT8-10, throughout the experimental period. An every-other-day dosing regimen was chosen at the indicated level based on several reasons. First, previous in vivo studies have used similar overall amounts for mouse treatment (100-125 mg/kg/day) (Lee et al., 2013; Li et al., 2006). The oral gavage procedure was done in late afternoon (ZT8-10) prior to the start of their active phase, reasoning that this may coincide with the time-window adopted by previous studies. Second, daily dosing was not chosen to avoid entraining the experimental mice with the procedure per se as an artificial zeitgeber. Furthermore, pilot pharmacokinetic (PK) assays were done under a single-dose condition (Fig. S7). […] Therefore, it was reasoned that every-other day dosing helps avoid any incomplete daily clearance over the chronic experimental period (10 weeks). Weekly body weight was monitored in different treatment mice for 10 weeks. Body mass composition was measured at the end of experiments using a […] spectrometer (Bruker Optics, Texas) (Garcia et al., 2013). A control group of mice were fed with regular chow diet (Purina 5001) in parallel with the two treatment groups in HFD. For db/db and db/db Clock^[…]/[…] mice, male mice at 6-8 weeks of age were group-housed (2-3/cage) and maintained on regular chow diets. Mice were subjected to oral gavage with either DMSO or NOB as described above. Energy expenditure was examined by measuring oxygen consumption with indirect calorimetry as described (Chutkow et al., 2010; Daniels et al., 2010). After 8 weeks of treatments described above, mice from each group were placed at room temperature (22° C.-24° C.) in the chambers of a Comprehensive Lab Animal Monitoring System (CLAMS, Columbus Instruments, Columbus, Ohio). After mice adapted to the metabolic chamber, volume of O2 consumption and CO2 production was continuously recorded over a 24-hr period. Average O2 consumption was calculated and compared between different treatments. Food and water were provided ad libitum. To measure food intake, food pellets were weighted every three hours over a 24-hr period in mice treated as above. The daily food intake was calculated from averaged food intake of 3 independent experiments. Serum samples were obtained at ZT2 from treated mice as previously described (Jeong et al., 2015). Hepatic triglyceride and cholesterol were extracted as previously described (Liu et al., 2012). The triglyceride and cholesterol levels in liver and serum were assessed by Serum Triglyceride Determination Kit (Sigma) and Cholesterol Assay Kit (Cayman), respectively. The assay plates were read by a TECAN M200 instrument (Tecan) following the manufacturer's instructions. Glucose tolerance test (GTT) and insulin tolerance test (ITT) were performed largely as described (He et al., 2015; Jeong et al., 2015). Briefly, after overnight and 5-hr fasting, GTT and ITT were conducted at ZT2 and ZT8 respectively. Glucose levels were measured from tail blood before and 15, 30, 60, or 120 min after injection of either 1 g/kg glucose or 0.75 U/kg insulin (Sigma) at ZT2 and ZT8 respectively by using the ONETOUCH UltraMini blood glucose monitoring system (LifeScan). Serum insulin levels were measured with the Rat/Mouse Insulin Elisa kit (Millipore) according to the manufacturer's instructions. The plasma samples were collected at ZT2 as described above for lipid assays. For microscopic analysis of lipid accumulation in liver, tissue samples were collected and immediately embedded in Tissue-Tek OCT cryostat molds (Leica) and then frozen at -80° C. Tissue sections were stained in 0.5% Oil Red O and counterstained with Mayer's hematoxylin for 1 min. […]

[3] = HFD-fed WT mice, serum and liver

Compound: COc1ccc(-c2cc(=O)c3c(OC)c(OC)c(OC)c(OC)c3o2)cc1OC [nobiletin]
competitive binding to RORγ-LBD (RORγ-LBD): direct binding; also recorded: robust competitive binding
competitive binding to RORα-LBD (RORα-LBD): direct binding; also recorded: robust competitive binding
amplitude of PER2::LucSV reporter rhythm [1]: robustly enhanced the amplitude
period of PER2::LucSV reporter rhythm [1]: lengthened the period in a dose-dependent manner
pEC50 ([1]; Mus musculus, Fibroblast, PER2::LucSV reporter rhythm, read-out: estimated half maximal effective concentration): > 5.30
lipid droplet formation in liver ([2]; DIO WT liver): essentially abolished lipid droplet formation
liver steatosis (H&E and Oil Red O staining) ([2]; DIO WT liver): strongly improved liver steatosis
adipocyte cell size ([2]; HFD-fed Clock^Δ19/Δ19 mice): essentially unchanged
energy expenditure ([2]; HFD-fed Clock^Δ19/Δ19 mice): no increase
fat mass ([2]; HFD-fed Clock^Δ19/Δ19 mice): essentially unchanged
food intake ([2]; HFD-fed Clock^Δ19/Δ19 mice): did not change food intake
glucose and lipid homeostasis ([2]; HFD-fed Clock^Δ19/Δ19 mice): did not significantly improve
respiratory quotient ([2]; HFD-fed Clock^Δ19/Δ19 mice): no increase
body weight gain ([2]; HFD-fed Clock^Δ19/Δ19 mice): very modest reduction in body weight gain
beneficial effect on liver steatosis ([2]; HFD-fed Clock^Δ19/Δ19 mice, compared with WT mice): markedly attenuated
fasting glucose levels ([2]; HFD-fed WT mice): lowered fasting glucose levels
fat mass (body mass composition) ([2]; HFD-fed WT mice): reduction in fat mass
glucose tolerance (GTT) ([2]; HFD-fed WT mice): significantly improved
insulin sensitivity (ITT) ([2]; HFD-fed WT mice): significantly improved
respiratory quotient ([2]; HFD-fed WT mice): increased
white adipose cell size ([2]; HFD-fed WT mice): reduction
body weight gain ([2]; HFD-fed WT mice, 200 mg/kg oral every other day, vs vehicle): significantly attenuated body weight gain
total cholesterol (TC) levels [2, 3]: significantly diminished
total triglyceride (TG) levels [2, 3]: significantly diminished
oxygen consumption (energy expenditure) ([2]; HFD-fed WT mice, throughout the circadian cycle): greatly elevated oxygen consumption
blood insulin levels ([2]; HFD-fed WT mice, vs vehicle): strongly reduced
food intake ([2]; HFD-fed WT mice, vs vehicle): not significantly altered
white adipose cell size ([2]; HFD-fed WT mice, listed as NOB): reduced visceral WAT cell size

competitive binding to RORγ-LBD (RORγ-LBD): markedly diminished binding
competitive binding to RORα-LBD (RORα-LBD): markedly diminished binding
Compound: C[C@@H]1O[C@@H](O[C@H]2[C@H](Oc3cc(O)c4c(c3)O[C@H](c3ccc(O)cc3)CC4=O)O[C@H](CO)[C@@H](O)[C@@H]2O)[C@H](O)[C@H](O)[C@H]1O [naringin, reference compound]
reporter luminescence ([1]; PER2::LucSV reporter cells): did not enhance the reporter luminescence
difference of treatment effects between WT and Clock^Δ19/Δ19 mice ([2]; HFD-fed C57BL/6J mice): largely indistinguishable
blood insulin levels ([2]; HFD-fed Clock^Δ19/Δ19 mice): decreased to similar extents
glucose tolerance (GTT) ([2]; HFD-fed Clock^Δ19/Δ19 mice): modest effects on glucose tolerance
insulin sensitivity (ITT) ([2]; HFD-fed Clock^Δ19/Δ19 mice): modest effects on insulin sensitivity
fasting blood glucose levels ([2]; HFD-fed Clock^Δ19/Δ19 mice, daytime and nighttime): failed to reduce fasting blood glucose levels
fasting glucose levels ([2]; HFD-fed WT mice): reduced fasting blood glucose levels
glucose tolerance (GTT) ([2]; HFD-fed WT mice): modest effects on glucose tolerance
insulin sensitivity (ITT) ([2]; HFD-fed WT mice): modest effects on insulin sensitivity
blood insulin levels ([2]; HFD-fed WT mice, vs vehicle): decreased to similar extents
effects on body weight gain and lipid and glucose homeostasis ([2]; HFD-fed mice, compared with nobiletin): significantly attenuated effects
